From PMC8289188, “Polyoxometalates as Effective Nano-inhibitors of Amyloid Aggregation of Pro-inflammatory S100A9 Protein Involved in Neurodegenerative Diseases” (ACS Applied Materials & Interfaces, 2021)
Read-outs that look alike come from different tables or passages of the source.

Legend:
[1] = molecular target: T1, S100A9 (Homo sapiens, UniProt P06702); assay: intrinsic Trp88 fluorescence titration; ANS fluorescence titration gave Kd […]; ThT/AFM amyloid inhibition; assay type: binding
T1 construct: native S100A9 expressed in Escherichia coli
T1 sequence (P06702 1-114): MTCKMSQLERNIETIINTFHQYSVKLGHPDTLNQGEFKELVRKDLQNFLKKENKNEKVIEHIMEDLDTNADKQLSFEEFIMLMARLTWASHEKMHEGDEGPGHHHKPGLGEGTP

[2] = molecular target: T1, S100A9; assay: as above; assay type: binding; remark: listed apart in the source

Row | Kd [1] | Kd [2] | Substance
1 | 2860 ± 390 nM |  | Nb10
2 |  | 2480 ± 200 nM | TiNb9
